These results are taken from ChEMBL document CHEMBL1143949, “Antiproliferative effects of 6-anilino-5-chloro-1H-benzo[d]imidazole-4,7-dione in vascular smooth muscle cells” (Bioorg Med Chem, 2008).

Calls of active or inactive are those of the source. No cut-off for these calls is given here.

What is called IC50 is the concentration at which inhibition is half-maximal. Lower therefore signals higher potency.

Assay [1] can be described thus: Antiproliferative activity against rat aortic smooth muscle cells. Type of assay: functional.
For a further assay, the system named is HUVEC. The experiment in a line: Antiproliferative activity against HUVEC. Type of assay: functional, cell-based. To be noted: Homo sapiens.
In the next assay the test system is NIH3T3. Nature of the assay: Antiproliferative activity against mouse NIH3T3 cells. Type of assay: functional, cell-based.
Assay [2] addresses Mitogen-activated protein kinase 1 (Rattus norvegicus) (UniProt P63086). Nature of the assay: Activation of ERK2 phosphorylation in rat aortic smooth muscle cells at 1 uM.
The species entered for assay [3] is Rattus norvegicus. Nature of the assay: Effect on PDGF and serum-induced cyclin E expression in rat aortic smooth muscle cells at 1 uM. Type of assay: functional.
Assay [4] has as its target Mitogen-activated protein kinase 3 (Rattus norvegicus) (UniProt P21708). The experiment in a line: Activation of ERK1 phosphorylation in rat aortic smooth muscle cells at 1 uM.
Assay [5] concerns the target MAP kinase p38 (Homo sapiens) (UniProt O15264+Q15759+Q16539+P53778). Nature of the assay: Activation of p38 phosphorylation in rat aortic smooth muscle cells at 1 uM.
The species entered for assay [6] is Rattus norvegicus. The experiment in a line: Induction of apoptosis in rat aortic smooth muscle cells assessed as caspase 3 activation at 1 uM. In kind it is functional.
A short description of assay [7]: Cell cycle arrest in rat aortic smooth muscle cells assessed as accumulation at G1 phase at 1 uM after 16 hrs. Type of assay: functional.
Assay [8] in a line: Cell cycle arrest in rat aortic smooth muscle cells assessed as accumulation at G2 phase at 1 uM after 16 hrs. In kind it is functional.
Assay [9] in a line: Cell cycle arrest in rat aortic smooth muscle cells assessed as accumulation at G0/G1 phase at 1 uM after 16 hrs. In kind it is functional.
For assay [10], the species on record is Rattus norvegicus. Nature of the assay: Inhibition of PDGF and FBS-induced migration of rat aortic smooth muscle cells by transwell plate assay. Type of assay: functional.
Assay [11] can be described thus: Cell cycle arrest in rat aortic smooth muscle cells assessed as accumulation at S phase at 1 uM after 16 hrs. In kind it is functional.
A short description of assay [12]: Cell cycle arrest in rat smooth muscle cells assessed as accumulation at G2/M phase at 1 uM after 16 hrs. Type of assay: functional, cell-based.

Mitogen-activated protein kinase 1 (Rattus norvegicus), sequence (P63086 whole entry): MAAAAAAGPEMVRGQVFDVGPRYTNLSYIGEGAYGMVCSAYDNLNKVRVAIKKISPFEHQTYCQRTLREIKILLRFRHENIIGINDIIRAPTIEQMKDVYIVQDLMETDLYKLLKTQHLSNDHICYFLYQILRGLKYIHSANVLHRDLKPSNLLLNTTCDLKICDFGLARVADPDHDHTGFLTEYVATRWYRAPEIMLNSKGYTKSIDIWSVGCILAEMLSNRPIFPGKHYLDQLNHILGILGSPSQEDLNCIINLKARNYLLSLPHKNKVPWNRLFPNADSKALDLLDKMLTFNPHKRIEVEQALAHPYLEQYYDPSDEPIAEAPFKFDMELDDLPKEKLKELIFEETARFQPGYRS
Mitogen-activated protein kinase 3 (Rattus norvegicus), sequence (P21708 whole entry): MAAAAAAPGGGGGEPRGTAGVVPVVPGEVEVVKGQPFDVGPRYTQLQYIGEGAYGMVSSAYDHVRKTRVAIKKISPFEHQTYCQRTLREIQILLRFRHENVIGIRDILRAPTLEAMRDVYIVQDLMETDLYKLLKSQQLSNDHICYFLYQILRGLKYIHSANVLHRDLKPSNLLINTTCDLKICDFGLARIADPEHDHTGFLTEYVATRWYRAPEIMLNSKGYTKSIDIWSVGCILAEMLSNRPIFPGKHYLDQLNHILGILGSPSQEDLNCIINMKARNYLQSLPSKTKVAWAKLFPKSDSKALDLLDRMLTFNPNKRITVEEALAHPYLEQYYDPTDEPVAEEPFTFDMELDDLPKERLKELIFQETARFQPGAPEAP

In the case of `Cc1nc2c([nH]1)C(=O)/C(=N/c1ccc(Cl)cc1)C(Cl)=C2O`, the IC50 was 2800 nM in [1], 800 nM in the assay on HUVEC and 1300 nM in the assay with NIH3T3.
Taken in the same sequence, the figures for `Cc1nc2c([nH]1)C(=O)/C(=N/c1cccc(Cl)c1Cl)C(Cl)=C2O` were 600 nM, 300 nM and 2300 nM.
With `Cc1nc2c([nH]1)C(=O)/C(=N/c1ccc(C(F)(F)F)cc1)C(Cl)=C2O`, the results for the IC50 (in assay [1]; in the assay on HUVEC; with NIH3T3) were 600 nM, 600 nM and 1100 nM, respectively.
For the compound `Cc1ccc(NC2=C(Cl)C(=O)c3nc(C)[nH]c3C2=O)cc1`, the IC50 in assay [1] was 800 nM; in the assay on HUVEC, 1000 nM; in the assay on NIH3T3 it was 1600 nM.
Consider `Cc1nc2c([nH]1)C(=O)/C(=N/c1ccc(I)cc1)C(Cl)=C2O`, for which the concentration for half-maximal inhibition (IC50) in [1] was 1000 nM; with HUVEC, 2000 nM; in the assay with NIH3T3, 600 nM.
`Cc1nc2c([nH]1)C(=O)/C(=N/c1cccc(Br)c1)C(Cl)=C2O`: the IC50 in assay [1] is 1000 nM; in the assay on HUVEC it was 800 nM; in the assay on NIH3T3, 800 nM.
`Cc1nc2c([nH]1)C(=O)/C(=N/c1ccc(F)cc1)C(Cl)=C2O`: the IC50 in assay [1] is 3000 nM; in the assay on HUVEC, 1000 nM; in the assay with NIH3T3 it was 1200 nM.
The like results for `Cc1nc2c([nH]1)C(=O)/C(=N/c1ccc(Cl)cc1Cl)C(Cl)=C2O` were, in that order, 800 nM, 500 nM and 1200 nM.
The like results for `Cc1nc2c([nH]1)C(=O)/C(=N/c1ccc(F)c(F)c1F)C(Cl)=C2O` were, in that order, 800 nM, 500 nM and 1600 nM.
Turning to `Cc1nc2c([nH]1)C(=O)/C(=N/c1ccc(F)cc1F)C(Cl)=C2O`, the IC50 in [1] is 1200 nM; in the assay with HUVEC, 1000 nM; with NIH3T3 it was 800 nM.
Regarding `Cc1nc2c([nH]1)C(=O)/C(=N/c1ccccc1)C(Cl)=C2O`, the outcome (in assay [2]; in [4]; in assay [5]; in the assay filed under Rattus norvegicus [6]; in the assay listed under Rattus norvegicus [10]) was Active. Further, the result (in the assay filed under Rattus norvegicus [3]; in [7]; in [8]) was inactive. Also, the IC50 in assay [1] turned out to be 800 nM; with HUVEC, 1200 nM; in the assay on NIH3T3 it was 5200 nM. The Activity came to 56.4% in assay [9], 23.3% in [11] and 20.1% in assay [12].
As to `Cc1nc2c([nH]1)C(=O)/C(=N/c1cccc(Cl)c1)C(Cl)=C2O`, the IC50 amounted to 900 nM in assay [1], 600 nM in the assay with HUVEC and 1600 nM in the assay on NIH3T3.
